Measurements published in patent US9981940B2, “Aryl sulfide derivatives and aryl sulfoxide derivatives as acaricides and insecticides” (BAYER CROPSCIENCE AKTIENGESELLSCHAFT, priority 2013, dated 2018).

What was measured:
[1] = log P by HPLC (OECD Guideline 117), method [a] acidic range; type: physicochemical; settings: for logP[a]: HPLC, method [a] acidic range; for chromatographic logP: reversed-phase C18 HPLC column, acidic range
Method: (§1) The log P values were determined analogously to OECD Guideline 117 (EC Directive 92/69/EEC) by HPLC (high-performance liquid chromatography) using reversed-phase columns (C 18), by the following methods:
[a] The LC-MS determination in the acidic range is effected at pH 2.7 with 0.1% aqueous formic acid and acetonitrile (contains 0.1% formic acid) as eluents; linear gradient from 10% acetonitrile to 95% acetonitrile.

Tetranychus urticae = Tetranychus urticae spray test, OP-resistant (TETRUR); type: in vivo; settings: application rate of 500 g/ha, after 6 days; for pest or weed control at 500 g/ha: Tetranychus urticae, 144 h, read-out: efficacy
In short: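 Bean leaf discs infested with all stages of an OP-resistant Tetranychus urticae strain sprayed with compound in acetone/DMF with alkylaryl polyglycol ether emulsifier, diluted in water. Efficacy in % scored after 6 days; 100% means all mites killed.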

[2] = log P by HPLC (OECD Guideline 117), method [b] neutral range; type: physicochemical; settings: HPLC; for logP[b]: method [b] neutral range; for chromatographic logP: reversed-phase C18 HPLC column, neutral range, pH 7.8
Method: as §1
[b] The LC-MS determination in the neutral range is effected at pH 7.8 with 0.001 molar aqueous ammonium hydrogencarbonate solution and acetonitrile as eluents; linear gradient from 10% acetonitrile to 95% acetonitrile.

Boophilus microplus = Boophilus microplus injection test (BOOPMI Inj); type: in vivo; settings: application rate of 20 μg/animal, assessed after 7 days by laying of fertile eggs
Method: Use Examples Boophilus microplus Injection Test (BOOPMI Inj) • Solvent: dimethyl sulphoxide
To prepare an appropriate active ingredient formulation, 10 mg of active ingredient are mixed with 0.5 ml of solvent and the concentrate is diluted with solvent to the desired concentration.
1 μl of the active ingredient solution is injected into the abdomen of 5 engorged adult female cattle ticks (Boophilus microplus). The animals are transferred into dishes and kept in a climate-controlled room.
The efficacy is assessed after 7 days by laying of fertile eggs. Eggs which are not visibly fertile are stored in a climate-controlled cabinet until the larvae hatch after about 42 days.
An efficacy of 100% means that none of the ticks has laid any fertile eggs; 0% means that all the eggs are fertile.

[3] = pH 2.7, HPLC method [a], read-out: logP[a]
[4] = pH 2.7, HPLC, pH 2.7, read-out: log P[a]

SMILES	logP[a] [1]	efficacy (Tetranychus urticae)	logP[b] [2]	efficacy (Boophilus microplus)	chromatographic logP [1, 3]	chromatographic logP [1, 4]	pest or weed control at 500 g/ha (Tetranychus urticae)	chromatographic logP [2]
Cc1cc(F)c(-n2nc(Br)n(C3CC3)c2=O)cc1[S+]([O-])CC(F)(F)F (racemic) [Example 295]	2.39	100%	2.34	100%				
Cc1cc(C)c([S+]([O-])CC(F)(F)F)cc1-n1nc(OCC(F)(F)F)n(C2CC2)c1=O (racemic) [Example 381]	2.88	90%	2.94	100%				
Cc1cc(Cl)c([S+]([O-])CC(F)(F)F)cc1-n1nc(OCC(F)(F)F)n(C2CC2)c1=O (racemic) [Example 384]	3.06	100%	2.97	100%				
COc1cc(F)c(-n2nc(OCC(F)(F)F)n(C3CC3)c2=O)cc1[S+]([O-])CC(F)(F)F (racemic) [Example 385]	2.80		2.74	100%				
Cn1c(C(F)(F)F)nn(-c2cc(SCC(F)(F)F)c(C#N)cc2F)c1=O [Example 38]	3.09	100%	3.08	100%				
COCc1nn(-c2cc([S+]([O-])CC(F)(F)F)c(C)cc2F)c(=O)n1C1CC1 (stereo not shown) [Example 45]	1.99	100%	1.96	100%				
Cc1cc(F)c(-n2nc(C(F)(F)F)n(C3CC3)c2=O)cc1[S+]([O-])CC(F)(F)F (stereo not shown) [Example 60]	2.93	90%	2.82	100%				
Cc1ccc(-n2nc(OCC(F)(F)F)n(C3CC3)c2=O)cc1SCC(F)(F)F [Example 92]	4.29	100%	4.20	100%				
Cc1cc(F)c(-n2nc(OC(C)C)n(C3CC3)c2=O)cc1SCC(F)(F)F [Example 101]	3.93	100%	3.85	100%				
CCn1c(Cl)nn(-c2cc(SCC(F)(F)F)c(C)cc2F)c1=O [Example 434]	3.45	100%	3.40					
CCn1c(Cl)nn(-c2cc([S+]([O-])CC(F)(F)F)c(C)cc2F)c1=O (stereo not shown) [Example 436]	2.34	100%	2.30					
Cc1cc(F)c(-n2nc(Br)n(C(C)(C)C)c2=O)cc1SCC(F)(F)F [Example 438]	4.24	100%	4.17					
Cc1cc(F)c(-n2nc(Br)n(Cc3ccccc3)c2=O)cc1SCC(F)(F)F [Example 440]	4.18	100%	4.13					
Cc1cc(F)c(-n2nc(Br)n(C(C)(C)C)c2=O)cc1[S+]([O-])CC(F)(F)F (stereo not shown) [Example 441]	3.02	100%	2.98					
Cc1nn(-c2cc(SCC(F)(F)F)c(C)cc2F)c(=O)o1 [Example 448, 3-{2-Fluoro-4-methyl-5-[(2,2,2-trifluoroethyl)sulphanyl]phenyl}-5-methyl-1,3,4-oxadiazol-2(3H)-one]					3.11	3.11	100%	3.09
Cc1cc(F)c(-n2nc(C(C)(C)C)oc2=O)cc1SCC(F)(F)F [Example 449]	4.30	90%	4.25					
COCc1nn(-c2cc(SCC(F)(F)F)c(C)cc2F)c(=O)o1 [Example 450]	3.18	100%	3.15					
Cc1nn(-c2cc([S+]([O-])CC(F)(F)F)c(C)cc2F)c(=O)o1 (stereo not shown) [Example 451, 3-{2-Fluoro-4-methyl-5-[(2,2,2-trifluoroethyl)sulphinyl]phenyl}-5-methyl-1,3,4-oxadiazol-2(3H)-one]					1.99	1.99	90%	2.02
Cc1cc(F)c(-n2ncoc2=O)cc1SCC(F)(F)F [Example 454]	2.85	90%	2.83					
CCc1nn(-c2cc(SCC(F)(F)F)c(C)cc2F)c(=O)o1 [Example 455]	3.53	100%	3.46					

SMILES	logP[a] [1]	efficacy (Tetranychus urticae)	logP[b] [2]	efficacy (Boophilus microplus)	chromatographic logP [1, 3]	chromatographic logP [1, 4]	pest or weed control at 500 g/ha (Tetranychus urticae)	chromatographic logP [2]
Cc1cc(F)c(-n2nc(C3CC3)oc2=O)cc1SCC(F)(F)F [Example 456]	3.62	100%	3.55					
Cc1cc(F)c(-n2nc(-c3ccccc3)oc2=O)cc1SCC(F)(F)F [Example 457]	4.35	90%	4.29					
Cc1cc(F)c(-n2nc(-c3ccc(Cl)cc3)oc2=O)cc1SCC(F)(F)F [Example 458]	4.85	100%	4.78					
Cc1cc(F)c(-n2nc(-c3ccncc3)oc2=O)cc1SCC(F)(F)F [Example 459]	3.20	90%	3.20					
CCCc1nn(-c2cc(SCC(F)(F)F)c(C)cc2F)c(=O)o1 [Example 460]	3.94	100%	3.92					
CCCCc1nn(-c2cc(SCC(F)(F)F)c(C)cc2F)c(=O)o1 [Example 461]	4.35	90%	4.33					
CCn1ccn(-c2cc(SCC(F)(F)F)c(C)cc2F)c1=O [Example 486, 1-Ethyl-3-{2-fluoro-4-methyl-5-[(2,2,2-trifluoroethyl)sulphanyl]phenyl}-1,3-dihydro-2H-imidazol-2-one]					2.84	2.84	100%	2.79
CCn1ccn(-c2cc([S+]([O-])CC(F)(F)F)c(C)cc2F)c1=O (stereo not shown) [Example 487, 1-Ethyl-3-{2-fluoro-4-methyl-5-[(2,2,2-trifluoroethyl)sulphinyl]phenyl}-1,3-dihydro-2H-imidazol-2-one]					1.83	1.83	90%	1.81
Cc1cc(F)c(-n2ccn(C(C)(C)C)c2=O)cc1SCC(F)(F)F [Example 488]	3.69	100%	3.63					
Cc1cc(F)c(-n2ccn(C(C)(C)C)c2=O)cc1[S+]([O-])CC(F)(F)F (stereo not shown) [Example 489]	2.50	90%	2.47					
COCc1nn(-c2cc(SCC(F)(F)F)c(C)cc2F)c(=S)n1C1CC1 [Example 492]	3.49	100%	3.43					
Cc1cc(F)c(-n2nc(CC(C)C)n(C3CC3)c2=S)cc1SCC(F)(F)F [Example 493]	4.44	100%	4.35					
Cc1cc(F)c(-n2nc(C(C)C)n(C3CC3)c2=S)cc1SCC(F)(F)F [Example 494]	4.1	100%	4.02					
CCCCc1nn(-c2cc(SCC(F)(F)F)c(C)cc2F)c(=S)n1C1CC1 [Example 495]	4.52	100%	4.43					
Cc1cc(F)c(-n2nc(C3CCCCC3)n(C3CC3)c2=S)cc1SCC(F)(F)F [Example 496]	5.00	90%	4.88					
Cc1cc(F)c(-n2nc(C3CCCC3)n(C3CC3)c2=S)cc1SCC(F)(F)F [Example 497, 5-Cyclopentyl-4-cyclopropyl-2-{2-fluoro-4-methyl-5-[(2,2,2-trifluoroethyl)sulphanyl]-phenyl}-2,4-dihydro-3H-1,2,4-triazole-3-thione]					4.68	4.68	90%	4.57
Cc1cc(F)c(-n2nc(C3CC3)n(C(C)C)c2=S)cc1SCC(F)(F)F [Example 498]	4.24	100%	4.14					
CCC(C)c1nn(-c2cc(SCC(F)(F)F)c(C)cc2F)c(=S)n1C1CC1 (stereo not shown) [Example 499]	4.46	90%	4.39					
CCOCc1nn(-c2cc(SCC(F)(F)F)c(C)cc2F)c(=S)n1C1CC1 [Example 500]	3.82	100%	3.77					
CC=Cc1nn(-c2cc(SCC(F)(F)F)c(C)cc2F)c(=S)n1C1CC1 [Example 501]	4.00	90%	3.94					
